Results from paper PMC5354814, “In silico and in vitro drug screening identifies new therapeutic approaches for Ewing sarcoma” (Oncotarget, 2016).
Where two headings read alike, the source gives them in different places.

Tests used:
[1] = parameters: method as in ref 19 (a number printed in a supplementary file, which may have a reference list of its own: not looked up in the article's list); conditions: cited from earlier work
natural killer cells = test system: natural killer cells; parameters: method as in ref 19 (a number printed in a supplementary file, which may have a reference list of its own: not looked up in the article's list); conditions: cited from earlier work
platelet = test system: platelet; parameters: method as in ref 19 (a number printed in a supplementary file, which may have a reference list of its own: not looked up in the article's list); conditions: 10 µg/mL; cited from earlier work
[2] = parameters: method as in ref 19 (a number printed in a supplementary file, which may have a reference list of its own: not looked up in the article's list); conditions: dogs, cited from earlier work
A673 cells = assay: In vivo xenograft mouse model
Procedure: To assess the antitumor activity of auranofin (using an alternative delivery approach), ganetespib and the combination treatments in vivo, we generated a xenograft nude mouse model by injecting A673 cells intramuscularly proximal to the tibia. Based on the dose tolerance and pharmacokinetic studies described above, we administered auranofin at a tolerable daily i.p. dose that achieved adequate systemic drug exposure. Auranofin was administered with a dose of 12 mg/kg through an i.p. injection once a day for 5 days per week, and ganetespib was administered with a dose of 150 mg/kg through an i.v. injection once weekly. Mice that grew palpable tumors were randomized into four groups: vehicle, auranofin-only, ganetespib-only, and the combination.
The guidelines adopted by the Institutional Animal Care and Use Committee of the University of Kansas Medical Center (KUMC-IACUC) were followed in all performed procedures. All experimental protocols were approved by KUMC-IACUC. Homozygous athymic nude (Foxn1nu/Foxn1nu) female mice at the age of 4-weeks were purchased from Jackson Laboratories. After one week, one million A673 cells in PBS (pH = 7.3) were injected into mice. The cells were injected intramuscularly proximal to the tibia and treatment started after 15 days of inoculation. Mice developing palpable tumors were divided into 4 arms and treated for up to 18 days: vehicle (20% Cremophor RH40 and 80% D5W iv and 0.5% HPMC K4M ip), auranofin (12 mg/kg i.p. injection 5 days per week), ganetespib (150 mg/kg i.v. injection once weekly), as well as auranofin and ganetespib combined. Mice were evaluated for overall health and weighed every week. When tumor size impeded mobility, mice were sacrificed and necropsies were performed. Tumors were then dissected, measured and processed for analysis. The liver, kidneys, and spleen were also snap frozen in liquid nitrogen or fixed in 10% neutral buffered formalin and paraffin embedded for toxicity studies. Tissues were then subjected to hematoxylin and eosin (H&E) staining and immunohistochemical staining. […]

human lymphocytes = test system: human lymphocytes; parameters: method as in ref 19 (a number printed in a supplementary file, which may have a reference list of its own: not looked up in the article's list); conditions: 1.25 µg auranofin/mL; cited from earlier work
[3] = parameters: method as in ref 19 (a number printed in a supplementary file, which may have a reference list of its own: not looked up in the article's list); conditions: 5 and 10 mg gold/kg p.o.; cited from earlier work
[4] = cited from earlier work
[5] = parameters: method as in ref 19 (a number printed in a supplementary file, which may have a reference list of its own: not looked up in the article's list); conditions: rats, 2 - 40 mg auranofin/kg p.o.; cited from earlier work
[6] = Dissociation of auranofin in plasma, whole blood and simulated gastric fluid; type: in vitro ADME; conditions: unpublished results
[7] = test system: human neutrophil and monocyte; parameters: method as in ref 19 (a number printed in a supplementary file, which may have a reference list of its own: not looked up in the article's list); conditions: 0.1 - 1.0 µg auranofin/mL; cited from earlier work
rate leukocytes = test system: rate leukocytes; parameters: method as in ref 19 (a number printed in a supplementary file, which may have a reference list of its own: not looked up in the article's list); conditions: 10^-3 to 10^-6M; cited from earlier work
human lymphocyte = test system: human lymphocyte; parameters: method as in ref 19 (a number printed in a supplementary file, which may have a reference list of its own: not looked up in the article's list); conditions: 0.1 - 1.0 µg auranofin/mL; cited from earlier work
[8] = after 6 months of auranofin 3 mg BID

CC(=O)OC[C@H]1O[C@@H]([S-])[C@H](OC(C)=O)[C@@H](OC(C)=O)[C@@H]1OC(C)=O.CCP(CC)CC.[Au+] [Auranofin, auranofin]
effect on hemodynamic and electrocardiographic parameters, pulmonary function, CNS activity, gastric mucosa or endocrine system [1]: no significant effect
activity of natural killer cells (natural killer cells; high concentrations, 1.0 - 2.5 µg auranofin/mL): inhibited
activity of natural killer cells (natural killer cells; low concentrations, 0.125 - 0.5 µg auranofin/mL): stimulated
epinephrine-, ADP-, or collagen-induced platelet aggregation (platelet): potent
chronic toxicity, anemia in middle and high dose groups ([2]; oral 0.6, 1.2 and 2.4-6.0 mg/kg/day, 12 months): intravascular hemolytic anemia
subacute toxicity findings ([2]; oral 1.8, 3.6-7.2 and 6.9-18.0 mg/kg/day, 3 months): Dose-related emesis, diarrhea, decreased food consumption
survival rate versus control group (A673 cells; auranofin 12 mg/kg i.p. 5 days per week, ganetespib 150 mg/kg i.v. once weekly, p < 0.05): significantly increased the survival rate
toxicity or adverse effects in xenograft study (A673 cells; auranofin 12 mg/kg i.p., ganetespib 150 mg/kg i.v.): did not show any noticeable toxicity or adverse effects
ADCC of human lymphocytes (human lymphocytes): reduced
low-grade oxazolone-induced contact sensitivity [3]: stimulated
mean steady state blood-gold concentration ([4]; 6 mg auranofin/day, n=63 patients): 0.68 ± 0.45 µg/mL
labelled gold excreted by day 10 [4, 8]: 75%
labelled gold excreted in feces by day 10 [4, 8]: 70%
labelled gold excreted in the urine by day 10 [4, 8]: 5%
mean plasma half-life [4, 8]: 25.5 days
mean total body terminal half-life [4, 8]: 80.8 days
absorbed gold in erythrocytes / red cells [4]: approximately 40%
gold in blood associated with red cells [4]: ~40%
gold in blood associated with serum proteins [4]: 60%
gold in plasma / associated with serum proteins [4]: 60%
labelled gold excreted six months after single dose [4]: approximately 99.6%
labelled gold retained in the body six months after single dose [4]: 0.4%
time to steady state blood gold levels ([4]; clinical studies): about 3 months
time to steady state blood-gold concentrations ([4]; clinical studies): about three m onths
fraction of gold absorbed after oral administration ([4]; human, oral): ~25%
mean terminal body half-life ([4]; n = 5): 80 days
mean terminal plasma half-life of auranofin gold at steady state ([4]; n = 5): 26 days
labelled gold excreted by day 10 ([4]; single 6 mg oral dose): 77%
labelled gold excreted in the feces by day 10 ([4]; single 6 mg oral dose): 73%
labelled gold excreted in the urine by day 10 ([4]; single 6 mg oral dose): 4%
mean plasma terminal half-life ([4]; single 6 mg oral dose): 17 days
mean total body terminal half-life ([4]; single 6 mg oral dose): 58 days
absorbed gold excreted in urine ([4]; single dose): About 60%
administered dose excreted in urine ([4]; single dose): 15%
antidiuretic effect [5]: slight antidiuretic effect
stability in plasma and whole blood ex vivo and simulated gastric fluid in vitro [6]: immediately and completely dissociates
chemotaxis [7]: inhibited
particle-stimulated lysosomal enzyme release (rate leukocytes): significantly reduced
phytohemagglutinin-induced mitogenesis (human lymphocyte): inhibited
